± gives the expanded uncertainty stated by the source.
Assay: refractive index (Na D-line) (dimensionless)
Settings: 298.2 K, 101.33 kPa, Liquid

Structure (SMILES)	refractive index (Standard Abbe refractometry)	refractive index
CCCCCCCCOS(=O)(=O)[O-].CCn1cc[n+](C)c1 [1-ethyl-3-methylimidazolium octyl sulfate]	1.471 ± 0.0006	
CCCCCCCC[n+]1ccn(C)c1.COCCOCCOS(=O)(=O)[O-] [1-methyl-3-octylimidazolium 2-(2-methoxyethoxy)ethyl sulfate]		1.466 ± 0.0009
c1ccccc1 [benzene]		1.4972 ± 0.0009

Now from value to compound:

refractive index (Standard Abbe refractometry)	refractive index	Structure (SMILES)
	1.385 ± 0.0009	CCCCCCC [heptane]
	1.4318 ± 0.0009	CCCCCCCCCCCCCCCC [hexadecane]

Source: the NIST ThermoML archive (doi:10.1021/je050494l)
